A value given as a limit tells only on which side of the number the result lay.

As usually defined, the IC50 is the point on the concentration scale where inhibition reaches its midpoint. The term MTD denotes the largest dose that counted as tolerated.

One data set concerns A549. Description: Cytotoxicity against human A549 cells assessed as inhibition of cell growth after 24 hrs by MTT assay. The class given is functional, cell-based. Conditions: A549, 24 h. (Tetrazolium dyes change colour on reduction, which living cells bring about.)
A short description of data set [1]: Cytotoxicity against human Bel7402 cells assessed as inhibition of cell growth after 24 hrs by MTT assay. It counts as functional, cell-based. As to conditions: Bel-7402, 24 h.
Data set [2] is described as follows: Cytotoxicity against human HL7702 cells assessed as inhibition of cell growth after 24 hrs by MTT assay. It counts as cell-based. As to conditions: L02, 24 h.
A short description of data set [3]: Hemolytic activity in rabbit RBC assessed as induction of hemolysis. Conditions: red blood cells, read-out: HD50 (the source's name). It counts as cell-based, Oryctolagus cuniculus, Erythrocyte.
The next data set has as its system SMMC-7721. Description: Cytotoxicity against human SMMC7721 cells assessed as inhibition of cell growth after 24 hrs by MTT assay. The class given is functional, cell-based. As to conditions: SMMC-7721, 24 h.
The nature of data set [4]: Ratio of hemolytic HD50 for PSD to hemolytic HD50 for compound in rabbit RBC. It counts as ADME, cell-based, Oryctolagus cuniculus. As to conditions: erythrocyte.
Data set [5] can be described thus: Induction of hemolysis in erythrocytes (unknown origin). The class given is cell-based, Erythrocyte. As to conditions: read-out: HD50 (the source's name).
Data set [6] can be described thus: Toxicity in iv dosed mouse assessed as tolerance dose. It counts as organism-based. As to conditions: in vivo.
Data set [7] relates to Mus musculus. Description: Toxicity in mouse assessed as induction of hematuria at 0.1 mL/10 g, iv. It counts as organism-based. Conditions: in vivo.
Data set [8] has as its system Mus musculus. Description: Toxicity in mouse assessed as death time at 0.1 mL/10 g, iv. The class given is organism-based. As to conditions: in vivo.
Data set [9] relates to Mus musculus. Description: Toxicity in mouse assessed as induction of induction of death at 0.1 mL/10 g, iv. The class given is organism-based. Conditions: in vivo.

For `C[C@@H]1O[C@@H](O[C@H]2[C@H](O[C@H]3CC[C@@]4(C)[C@@H](CC[C@]5(C)[C@@H]4CC=C4[C@@H]6CC(C)(C)CC[C@]6(C(=O)N[C@H](CO)C(=O)O)CC[C@]45C)[C@]3(C)CO)OC[C@H](O[C@@H]3O[C@H](CO)[C@@H](O)[C@H](O)[C@H]3O)[C@@H]2O)[C@H](O)[C@H](O)[C@H]1O`, the IC50 with A549 is 72.3 µM; in [1] it was 93.1 µM; in data set [2], greater than 100 µM; in the data set with SMMC-7721 it was greater than 100 µM. For the same compound, the HC50 in data set [3] was 60.3 µM. For the same compound, the Ratio in data set [4] was 20.

`C[C@@H]1O[C@@H](O[C@H]2[C@H](O[C@H]3CC[C@@]4(C)[C@@H](CC[C@]5(C)[C@@H]4CC=C4[C@@H]6CC(C)(C)CC[C@]6(C(=O)N6CCC[C@H]6C(=O)O)CC[C@]45C)[C@]3(C)CO)OC[C@H](O[C@@H]3O[C@H](CO)[C@@H](O)[C@H](O)[C@H]3O)[C@@H]2O)[C@H](O)[C@H](O)[C@H]1O`: the IC50 was 71.1 µM in the data set with A549, 97.8 µM in data set [1], greater than 100 µM in data set [2] and 46.8 µM with SMMC-7721. In addition, the HC50 in data set [3] worked out at 326 µM. For the same compound, in data set [4], the Ratio was 20.

`C[C@@H]1O[C@@H](O[C@H]2[C@H](O[C@H]3CC[C@@]4(C)[C@@H](CC[C@]5(C)[C@@H]4CC=C4[C@@H]6CC(C)(C)CC[C@]6(C(=O)NCC(=O)O)CC[C@]45C)[C@]3(C)CO)OC[C@H](O[C@@H]3O[C@H](CO)[C@@H](O)[C@H](O)[C@H]3O)[C@@H]2O)[C@H](O)[C@H](O)[C@H]1O`: the IC50 in the data set on A549 came to 5.7 µM; in data set [1], 4.3 µM; in [2], 1.5 µM; in the data set with SMMC-7721 it was 1.6 µM. In [3], the HC50 was found to be 160 µM. The Ratio in data set [4] is reported as 20.

Take `C[C@@H]1O[C@@H](O[C@H]2[C@H](O[C@H]3CC[C@@]4(C)[C@@H](CC[C@]5(C)[C@@H]4CC=C4[C@@H]6CC(C)(C)CC[C@]6(C(=O)O)CC[C@]45C)[C@]3(C)CO)OC[C@H](O[C@@H]3O[C@H](CO)[C@@H](O)[C@H](O)[C@H]3O)[C@@H]2O)[C@H](O)[C@H](O)[C@H]1O` [HEDERACOLCHISIDE A]: the IC50 with A549 is 6.3 µM; in data set [1], 8.9 µM; in [2], 12.6 µM; in the data set on SMMC-7721, 7.6 µM. Besides, the values for the HC50 in data set [5] and in data set [3] were 22 µM and 6.3 µM, respectively.

Regarding `C[C@@H]1O[C@@H](O[C@H]2[C@H](O[C@H]3CC[C@@]4(C)[C@@H](CC[C@]5(C)[C@@H]4CC=C4[C@@H]6CC(C)(C)CC[C@]6(C(=O)[O-])CC[C@]45C)[C@]3(C)CO)OC[C@H](O[C@@H]3O[C@H](CO)[C@@H](O)[C@H](O)[C@H]3O)[C@@H]2O)[C@H](O)[C@H](O)[C@H]1O.[Na+]`, in data set [6], the MTD stood at 10 mg/kg. The Activity result in the data set on Mus musculus [7] and in the data set with Mus musculus [9] was “Toxic” in each case. Also, the Time in the data set with Mus musculus [8] is less than 60 min.

Take `C[C@@H]1O[C@@H](O[C@H]2[C@H](O[C@H]3CC[C@@]4(C)[C@@H](CC[C@]5(C)[C@@H]4CC=C4[C@@H]6CC(C)(C)CC[C@]6(C(=O)N6CCN(CCC(=O)O)CC6)CC[C@]45C)[C@]3(C)CO)OC[C@H](O[C@@H]3O[C@H](CO)[C@@H](O)[C@H](O)[C@H]3O)[C@@H]2O)[C@H](O)[C@H](O)[C@H]1O`: the IC50 in the data set on A549 was determined as 1.9 µM; in data set [1] it was 9.8 µM; in data set [2] it was 1.3 µM; in the data set with SMMC-7721, 14.5 µM. Further, in data set [3], the HC50 stood at 119 µM. Further, the Ratio in data set [4] amounted to 20.

Regarding `C[C@@H]1O[C@@H](O[C@H]2[C@H](O[C@H]3CC[C@@]4(C)[C@@H](CC[C@]5(C)[C@@H]4CC=C4[C@@H]6CC(C)(C)CC[C@]6(C(=O)NCC(=O)[O-])CC[C@]45C)[C@]3(C)CO)OC[C@H](O)[C@@H]2O)[C@H](O)[C@H](O)[C@H]1O.[Na+]`, in data set [6], the maximal tolerated dose (MTD) is greater than 160 mg/kg. Further, the Activity result with Mus musculus [7] and in the data set on Mus musculus [9] was “Non-toxic” each time. Also, the Time in the data set with Mus musculus [8] is greater than 20200 min.

On to `C[C@@H]1O[C@@H](O[C@H]2[C@H](O[C@H]3CC[C@@]4(C)[C@@H](CC[C@]5(C)[C@@H]4CC=C4[C@@H]6CC(C)(C)CC[C@]6(C(=O)O)CC[C@]45C)[C@]3(C)CO)OC[C@H](O)[C@@H]2O)[C@H](O)[C@H](O)[C@H]1O` [ALPHA-HEDERIN], for which the IC50 in the data set on A549 was determined as 15.3 µM; in data set [1], 13.2 µM; in data set [2] it was 11.5 µM; with SMMC-7721, 10.8 µM. The HC50 in data set [5] came out at 10 µM; in data set [3] it was 7.5 µM.

The record behind these values is ChEMBL document CHEMBL3425467, “Synthesis, cytotoxicity and haemolytic activity of Pulsatilla saponin A, D derivatives” (Bioorg Med Chem Lett, 2015).
